Results as given in patent US10065963B2 (Incyte Corporation, priority 2015, dated 2018).
Where a name gives a salt, the structure may show the parent alone. Read-outs that look alike come from different tables or passages of the source.

Tests used:
[1] = target: PI3Kδ (p110δ/p85α) Recombinant Human Protein (Homo sapiens (Human), UniProt O00329); experiment: PI3Kδ scintillation proximity assay; format: biochemical; details: 2 μM ATP, 20 μM PIP2
[2] = target: PI3Kγ (p110γ) Recombinant Human Protein (Homo sapiens (Human), UniProt P48736); experiment: PI3K-γ scintillation proximity assay; format: biochemical; details: 2 μM ATP, 20 μM PIP2
[3] = system: Phosphorylated Ribosomal Protein S6 (RPS6) in THP-1 cells; experiment: THP-1 RPS6 ELISA assay; format: cell-based, human; details: 10 nM MCP-1, read-out: PI3Kγ_THP1_RPS6_ELISA IC50
[4] = Homo sapiens, THP-1, THP-1 cells

Sequence of PI3Kγ (p110γ) Recombinant Human Protein (P48736 whole entry): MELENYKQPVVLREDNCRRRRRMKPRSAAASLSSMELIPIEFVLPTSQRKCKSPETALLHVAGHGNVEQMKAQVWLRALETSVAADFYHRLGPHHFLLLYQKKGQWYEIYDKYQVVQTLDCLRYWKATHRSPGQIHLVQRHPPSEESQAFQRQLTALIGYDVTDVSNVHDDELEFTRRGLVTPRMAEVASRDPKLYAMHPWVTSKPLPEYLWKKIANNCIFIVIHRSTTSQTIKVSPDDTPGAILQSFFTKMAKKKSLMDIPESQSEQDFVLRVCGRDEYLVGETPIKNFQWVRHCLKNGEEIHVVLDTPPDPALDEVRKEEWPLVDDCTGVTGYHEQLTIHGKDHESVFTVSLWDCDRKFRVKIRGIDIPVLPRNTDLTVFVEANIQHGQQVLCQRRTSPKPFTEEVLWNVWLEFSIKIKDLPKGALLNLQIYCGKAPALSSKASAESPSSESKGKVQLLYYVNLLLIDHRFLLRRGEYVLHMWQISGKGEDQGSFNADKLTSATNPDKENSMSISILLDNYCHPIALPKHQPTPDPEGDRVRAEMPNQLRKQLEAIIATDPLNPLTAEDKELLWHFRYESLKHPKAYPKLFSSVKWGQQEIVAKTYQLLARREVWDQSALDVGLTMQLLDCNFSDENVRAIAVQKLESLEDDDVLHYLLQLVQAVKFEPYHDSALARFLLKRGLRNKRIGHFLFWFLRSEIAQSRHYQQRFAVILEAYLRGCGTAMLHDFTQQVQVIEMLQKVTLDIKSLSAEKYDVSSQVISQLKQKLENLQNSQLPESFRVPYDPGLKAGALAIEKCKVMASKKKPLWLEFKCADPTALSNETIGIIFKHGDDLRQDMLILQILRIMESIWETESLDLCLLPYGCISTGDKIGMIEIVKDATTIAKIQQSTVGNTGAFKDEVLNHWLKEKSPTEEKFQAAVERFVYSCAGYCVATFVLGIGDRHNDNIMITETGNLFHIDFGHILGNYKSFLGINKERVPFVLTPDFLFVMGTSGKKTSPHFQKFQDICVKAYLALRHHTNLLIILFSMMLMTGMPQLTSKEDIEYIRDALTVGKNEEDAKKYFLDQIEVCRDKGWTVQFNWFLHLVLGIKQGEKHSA
Sequence of PI3Kδ (p110δ/p85α) Recombinant Human Protein (O00329 whole entry): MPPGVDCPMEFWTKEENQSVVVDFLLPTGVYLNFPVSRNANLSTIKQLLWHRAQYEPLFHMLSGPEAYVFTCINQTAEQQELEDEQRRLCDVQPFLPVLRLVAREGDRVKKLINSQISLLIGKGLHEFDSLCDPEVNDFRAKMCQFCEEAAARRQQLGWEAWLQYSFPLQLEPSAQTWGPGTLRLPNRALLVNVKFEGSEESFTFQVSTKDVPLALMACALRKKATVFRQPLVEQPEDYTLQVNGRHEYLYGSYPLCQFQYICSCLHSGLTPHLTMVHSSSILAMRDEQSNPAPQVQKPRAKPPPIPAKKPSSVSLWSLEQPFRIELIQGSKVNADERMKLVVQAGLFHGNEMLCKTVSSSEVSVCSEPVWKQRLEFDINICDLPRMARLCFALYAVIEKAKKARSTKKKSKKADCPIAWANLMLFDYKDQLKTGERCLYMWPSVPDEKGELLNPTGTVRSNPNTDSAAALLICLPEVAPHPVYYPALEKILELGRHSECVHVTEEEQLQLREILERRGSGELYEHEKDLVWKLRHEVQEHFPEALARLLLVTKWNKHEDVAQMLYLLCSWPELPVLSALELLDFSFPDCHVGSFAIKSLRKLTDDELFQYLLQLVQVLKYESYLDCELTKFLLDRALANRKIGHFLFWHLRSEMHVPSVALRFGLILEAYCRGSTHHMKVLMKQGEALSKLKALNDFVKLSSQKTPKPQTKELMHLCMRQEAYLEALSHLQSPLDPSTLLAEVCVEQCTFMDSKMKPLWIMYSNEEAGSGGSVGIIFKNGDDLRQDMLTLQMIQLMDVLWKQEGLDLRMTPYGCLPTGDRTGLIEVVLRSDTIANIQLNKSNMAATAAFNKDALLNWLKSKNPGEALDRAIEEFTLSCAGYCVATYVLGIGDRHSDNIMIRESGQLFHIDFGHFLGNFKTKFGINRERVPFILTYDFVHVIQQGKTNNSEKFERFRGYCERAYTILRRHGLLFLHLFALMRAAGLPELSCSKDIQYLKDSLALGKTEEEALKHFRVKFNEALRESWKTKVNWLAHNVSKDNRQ
Sequence of PI3Kδ (p110δ/p85α) Recombinant Human Protein (P27986 whole entry partner): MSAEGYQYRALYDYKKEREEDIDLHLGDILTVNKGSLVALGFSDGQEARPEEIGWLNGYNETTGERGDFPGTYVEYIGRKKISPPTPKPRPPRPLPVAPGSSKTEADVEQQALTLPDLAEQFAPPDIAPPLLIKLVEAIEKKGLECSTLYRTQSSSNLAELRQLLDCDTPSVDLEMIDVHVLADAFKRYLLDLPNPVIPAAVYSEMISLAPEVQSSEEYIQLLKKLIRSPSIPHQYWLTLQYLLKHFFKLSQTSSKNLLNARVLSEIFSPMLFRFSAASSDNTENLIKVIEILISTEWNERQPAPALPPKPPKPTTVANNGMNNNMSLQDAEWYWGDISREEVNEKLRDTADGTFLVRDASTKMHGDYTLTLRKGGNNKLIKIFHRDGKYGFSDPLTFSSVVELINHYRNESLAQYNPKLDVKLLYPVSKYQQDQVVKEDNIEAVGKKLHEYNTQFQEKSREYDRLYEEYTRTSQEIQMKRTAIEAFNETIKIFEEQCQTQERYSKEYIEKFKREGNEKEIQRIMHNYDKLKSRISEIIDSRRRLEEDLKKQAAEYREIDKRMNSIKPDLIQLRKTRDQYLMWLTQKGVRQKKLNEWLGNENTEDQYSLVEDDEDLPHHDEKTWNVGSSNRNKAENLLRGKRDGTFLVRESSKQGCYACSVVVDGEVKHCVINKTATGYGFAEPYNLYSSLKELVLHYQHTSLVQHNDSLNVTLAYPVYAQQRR

SMILES	IC50 [1] [nM]	IC50 [2] [nM]	IC50 [3, 4] [nM]	IC50 ([3]; THP-1 cells) [nM]
CC(NC(=O)c1c(N)nn2cccnc12)c1cc(Cl)c2cncn2c1N1CC[S+]([O-])CC1 (stereo not drawn) [Example 37, 2-Amino-N-(1-[8-chloro-5-(1-oxidothiomorpholin-4-yl)imidazo[1,5-a]pyridin-6-yl]ethyl)pyrazolo[1,5-a]pyrimidine-3-carboxamide trifluoroacetate salt]	< 500	< 100	< 500	–
CC(NC(=O)c1c(N)nn2cccnc12)c1cc(Cl)c2cncn2c1N1CCC(F)CC1 (stereo not drawn) [Example 66, 2-Amino-N-{1-[8-chloro-5-(4-fluoropiperidin-1-yl)imidazo[1,5-a]pyridin-6-yl]ethyl}pyrazolo[1,5-a]pyrimidine-3-carboxamide bistrifluoroacetate]	< 100	< 100	< 500	–
C#Cc1nc(C)n2c(-c3ccccc3)c(C(C)NC(=O)c3c(N)nn4cccnc34)cc(Cl)c12 (racemic) [Example 126, 2-Amino-N-[1-(8-chloro-1-ethynyl-3-methyl-5-phenylimidazo[1,5-a]pyridin-6-yl)ethyl]pyrazolo[1,5-a]pyrimidine-3-carboxamide]	< 2000	< 100	< 500	–
CC(NC(=O)c1c(N)nn2cccnc12)c1cc(Cl)c2cncn2c1N1C[C@@H](O)C[C@@H](F)C1 (stereo partly drawn) [Example 156, 2-Ammo-N-(1-{8-chloro-5-[(3R,5S)-3-fluoro-5-hydroxypiperidin-1-yl]imidazo[1,5-a]pyridin-6-yl}ethyl)pyrazolo[1,5-a]pyrimidine-3-carboxamide trifluoroacetate salt]	< 2000	< 100	–	< 1000
CC(NC(=O)c1c(N)nn2cccnc12)c1cc(Cl)c2cncn2c1-c1ccccn1 (racemic) [Example 133, 2-Amino-N-[1-(8-chloro-5-pyridin-2-ylimidazo[1,5-a]pyridin-6-yl)ethyl]pyrazolo[1,5-a]pyrimidine-3-carboxamide trifluoroacetate salt]	< 500	< 100	< 500	–
CCOc1c(C(C)NC(=O)c2c(N)nn3ccc(N4CCCCC4)nc23)cc(Cl)c2cn[nH]c12 (stereo not drawn) [Example 44, 2-Amino-N-(1-(4-chloro-7-ethoxy-1H-indazol-6-yl)ethyl)-5-(piperidin-1-yl)pyrazolo[1,5-a]pyrimidine-3-carboxamide trifluoroacetate salt]	< 2000	< 500	> 1000	–
CC(NC(=O)c1c(N)nn2cccnc12)c1cc(Cl)c2cncn2c1N1CCC(O)C1 (stereo not drawn) [Example 148, 2-Amino-N-{1-[8-chloro-5-(3-hydroxy-pyrrolidin-1-yl)imidazo[1,5-a]pyridin-6-yl]ethyl}pyrazolo [1,5-a]pyrimidine-3-carboxamide trifluoroacetate salt]	< 500	< 500	< 500	–
CC(NC(=O)c1c(N)nn2cccnc12)c1cc(Cl)c2cncn2c1-c1cn[nH]c1 (racemic) [Example 139, 2-Amino-N-{1-[8-chloro-5-(1H-pyrazol-4-yl)imidazo[1,5-a]pyridin-6-yl]ethyl}pyrazolo[1,5-a]pyrimidine-3-carboxamide trifluoroacetate salt]	< 100	< 100	< 500	–
CCOc1c(C(C)NC(=O)c2c(N)nn3cccnc23)cc(Cl)c2c(C#N)n[nH]c12 (stereo not drawn) [Example 86, 2-Amino-N-(1-(4-chloro-3-cyano-7-ethoxy-1H-indazol-6-yl)ethyl)pyrazolo[1,5-a]pyrimidine-3-carboxamide trifluoroacetate]	< 500	< 100	> 1000	–
CC(NC(=O)c1c(N)nn2cccnc12)c1cc(Cl)c2c(C#N)ncn2c1N1CCS(=O)(=O)C(C)C1 (stereo not drawn) [Example 165, 2-Amino-N-(1-(8-chloro-1-cyano-5-(2-methyl-1,1-dioxidothiomorpholino)imidazo[1,5-a]pyridin-6-yl)ethyl)pyrazolo[1,5-a]pyrimidine-3-carboxamide trifluoroacetate salt]	< 2000	< 100	< 500	–
Cc1nc(F)c2c(Cl)cc(C(C)NC(=O)c3c(N)nn4cccnc34)c(-c3cn[nH]c3)n12 (racemic) [Example 123, 2-Amino-N-{1-[8-chloro-1-fluoro-3-methyl-5-(1H-pyrazol-4-yl)imidazo[1,5-a]pyridin-6-yl]ethyl}pyrazolo[1,5-a]pyrimidine-3-carboxamide trifluoroacetate salt]	< 100	< 100	< 500	–
CCC(NC(=O)c1c(N)nn2cccnc12)c1cc(Cl)c2c(C#N)ncn2c1N1CCS(=O)(=O)C(C)C1 (stereo not drawn) [Example 175, 2-Amino-N-(1-(8-chloro-1-cyano-5-(2-methyl-1,1-dioxidothiomorpholino)imidazo[1,5-a]pyridin-6-yl)propyl)pyrazolo[1,5-a]pyrimidine-3-carboxamide trifluoroacetate salt]	< 2000	< 100	< 500	–
Cc1nc(Cl)c2c(Cl)cc(C(C)NC(=O)c3c(N)nn4cccnc34)c(-c3cn[nH]c3)n12 (racemic) [Example 122, 2-Amino-N-{1-[1,8-dichloro-3-methyl-5-(1H-pyrazol-4-yl)imidazo[1,5-a]pyridin-6-yl]ethyl}pyrazolo[1,5-a]pyrimidine-3-carboxamide trifluoroacetate salt]	< 100	< 100	< 500	–
CC(NC(=O)c1c(N)nn2cccnc12)c1cc(Cl)c2cncn2c1N1CCS(=O)(=O)CC1 (single isomer, unassigned) [Example 36A, 2-Amino-N-(1-[8-chloro-5-(1,1-dioxidothiomorpholin-4-yl)imidazo[1,5-a]pyridin-6-yl]ethyl)pyrazolo[1,5-a]pyrimidine-3-carboxamide]	< 100	< 100	< 500	–
COc1cncc(-c2c(C(C)NC(=O)c3c(N)nn4cccnc34)cc(Cl)c3cncn23)c1 (stereo not drawn) [Example 134, 2-Amino-N-{1-[8-chloro-5-(5-methoxypyridin-3-yl)imidazo[1,5-d]pyridin-6-yl]ethyl}pyrazolo[1,5-a]pyrimidine-3-carboxamide trifluoroacetate salt]	< 500	< 100	–	> 1000
CC(NC(=O)c1c(N)nn2cccnc12)c1cc(Cl)c2c(Cl)ncn2c1N1CCS(=O)(=O)CC1 (racemic) [Example 162, 2-Amino-N-{1-[1,8-dichloro-5-(1,1-dioxidothiomorpholin-4-yl)imidazo[1,5-a]pyridin-6-yl]ethyl}pyrazolo[1,5-a]pyrimidine-3-carboxamide trifluoroacetate salt]	< 500	< 100	< 500	–
CC(NC(=O)c1c(N)nn2cccnc12)c1cc(Cl)c2cncn2c1N1CCCC(C)(C#N)C1 (single isomer, unassigned) [Example 77B, 2-Amino-N-{1-[8-chloro-5-(3-cyano-3-methylpiperidin-1-yl)imidazo[1,5-a]pyridin-6-yl]ethyl}pyrazolo[1,5-a]pyrimidinc-3-carboxamide trifluroacetate]	< 100	< 100	–	< 500
CCOc1c(C(C)NC(=O)c2c(N)nn3ccc(-c4cccnc4)nc23)cc(Cl)c2cn[nH]c12 (stereo not drawn) [Example 50, 2-Amino-N-[1-(4-chloro-7-ethoxy-1H-indazol-6-yl)ethyl]-5-pyridin-3-ylpyrazolo[1,5-a]pyrimidine-3-carboxamide bis(trifluoroacetate)]	< 100	< 100	< 500	–
COC(=O)C1CCN(c2c(C(C)NC(=O)c3c(N)nn4cccnc34)cc(Cl)c3cn[nH]c23)C1 (stereo not drawn) [Example 102, Methyl 1-[6-(1-{[(2-aminopyrazolo[1,5-a]pyrimidin-3-yl)carbonyl]amino}ethyl)-4-chloro-2H-indazol-7-yl]pyrrolidine-3-carboxylate trifluoroacetate]	< 500	< 100	> 1000	–
COc1c(C(C)NC(=O)c2c(N)nn3cccnc23)cc(Cl)c2cn[nH]c12 (stereo not drawn) [Example 82, 2-Amino-N-(1-(4-chloro-7-methoxy-1H-indazol-6-yl)ethyl)pyrazolo[1,5-a]pyrimidine-3-carboxamide trifluoroacetate]	< 100	< 100	< 500	–
CC(NC(=O)c1c(N)nn2cccnc12)c1cc(Cl)c2cncn2c1N1CCC(O)CC1 (racemic) [Example 146, 2-Amino-N-{1-[8-chloro-5-(4-hydroxypiperidin-1-yl)imidazo[1,5-a]pyridin-6-yl]ethyl}pyrazolo[1,5-a]pyrimidine-3-carboxamide trifluoroacetate salt]	< 100	< 100	< 500	–
CC(NC(=O)c1c(N)nn2cccnc12)c1cc(Cl)c2cncn2c1N1CCNS(=O)(=O)CC1 (racemic) [Example 149, 2-Amino-N-{1-[8-chloro-5-(1,1-dioxido-1,2,5-thiadiazepan-5-yl)imidazo[1,5-a]pyridin-6-yl]ethyl}pyrazolo[1,5-a]pyrimidine-3-carboxamide]	< 100	< 100	< 500	–
Cc1ncc2c(Cl)cc(C(C)NC(=O)c3c(N)nn4cccnc34)c(-c3cn[nH]c3)n12 (racemic) [Example 118, 2-Amino-N-{1-[8-chloro-3-methyl-5-(1H-pyrazol-4-yl)imidazo[1,5-a]pyridin-6-yl]ethyl}pyrazolo[1,5-a]pyrimidine-3-carboxamide trifluoroacetate salt]	< 100	< 100	< 500	–
CC(NC(=O)c1c(N)nn2cccnc12)c1cc(Cl)c2cncn2c1N1CCC2(CC1)CNC(=O)O2 (stereo not drawn) [Example 80, 2-Amino-N-{1-[8-chloro-5-(2-oxo-1-oxa-3,8-diazaspiro[4.5]dec-8-yl)imidazo[1,5-a]pyridin-6-yl]ethyl}pyrazolo[1,5-a]pyrimidine-3-carboxamide trifluoroacetate]	< 500	< 100	< 500	–
